Patent publication US11306092B2, “Amino indole compounds useful as TLR inhibitors” (BRISTOL-MYERS SQUIBB COMPANY, priority 2017, dated 2022)

How the values were obtained:
[1] = biological target: T1, human TLR7 (Homo sapiens, UniProt Q9NYK1); test: TLR7 inhibition reporter assay (HEK-Blue SEAP reporter); assay type: cell-based; settings: HEK-Blue cells overexpressing human TLR7; gardiquimod 7.5 μM; 22 hour incubation
T1 construct: host or cells: HEK-Blue cells
T1 sequence (Q9NYK1 27-1049): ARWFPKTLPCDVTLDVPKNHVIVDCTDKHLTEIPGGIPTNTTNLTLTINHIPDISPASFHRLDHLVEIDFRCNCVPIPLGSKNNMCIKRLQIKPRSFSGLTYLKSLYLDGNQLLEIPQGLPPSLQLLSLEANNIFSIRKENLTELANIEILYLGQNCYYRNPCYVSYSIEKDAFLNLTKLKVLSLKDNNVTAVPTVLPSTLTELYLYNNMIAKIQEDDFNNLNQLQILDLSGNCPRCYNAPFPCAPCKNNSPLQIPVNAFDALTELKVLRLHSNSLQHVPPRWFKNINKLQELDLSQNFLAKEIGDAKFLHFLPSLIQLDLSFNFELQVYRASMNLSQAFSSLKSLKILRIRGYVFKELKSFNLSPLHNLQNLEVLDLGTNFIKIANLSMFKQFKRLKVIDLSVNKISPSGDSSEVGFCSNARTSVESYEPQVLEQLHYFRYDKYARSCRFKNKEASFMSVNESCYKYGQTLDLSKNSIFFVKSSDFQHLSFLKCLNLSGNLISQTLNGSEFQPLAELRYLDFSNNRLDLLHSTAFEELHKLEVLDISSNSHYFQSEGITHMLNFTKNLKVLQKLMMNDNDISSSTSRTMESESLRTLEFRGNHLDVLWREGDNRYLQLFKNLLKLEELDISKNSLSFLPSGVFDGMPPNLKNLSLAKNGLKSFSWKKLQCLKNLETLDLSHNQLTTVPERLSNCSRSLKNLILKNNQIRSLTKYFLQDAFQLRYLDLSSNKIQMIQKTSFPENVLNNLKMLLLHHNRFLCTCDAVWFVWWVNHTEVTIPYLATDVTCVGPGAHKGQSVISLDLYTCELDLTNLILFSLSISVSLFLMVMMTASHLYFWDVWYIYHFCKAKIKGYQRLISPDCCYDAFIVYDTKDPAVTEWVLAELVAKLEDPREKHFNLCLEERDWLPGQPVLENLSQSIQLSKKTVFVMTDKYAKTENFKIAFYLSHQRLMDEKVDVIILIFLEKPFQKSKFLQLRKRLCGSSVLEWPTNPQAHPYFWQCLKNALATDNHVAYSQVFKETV
Method: (§1) TLR7/8/9 Inhibition Reporter Assays
(§2) HEK-Blue™-cells (Invivogen) overexpressing human TLR7, TLR8 or TLR9 receptors were used for screening inhibitors of these receptors using an inducible SEAP (secreted embryonic alkaline phosphatase) reporter gene under the control of the IFN-β minimal promoter fused to five NF-κB and AP-1-binding sites. Briefly, cells are seeded into Greiner 384 well plates (15000 cells per well for TLR7, 20,000 for TLR8 and 25,000 for TLR9) and then treated with test compounds in DMSO to yield a final dose response concentration range of 0.05 nM-50 μM. After a 30 minute compound pre-treatment at room temperature, the cells are then stimulated with a TLR7 ligand (gardiquimod at a final concentration of 7.5 μM), TLR8 ligand (R848 at a final concentration of 15.9 μM) or TLR9 ligand (ODN2006 at a final concentration of 5 nM) to activate NF-κB and AP-1 which induce the production of SEAP. After a 22 hour incubation at 37° C., 5% CO2, SEAP levels are determined with the addition of HEK-Blue™ Detection reagent (Invivogen), a cell culture medium that allows for detection of SEAP, according to manufacturer's specifications. The percent inhibition is determined as the % reduction in the HEK-Blue signal present in wells treated with agonist plus DMSO alone compared to wells treated with a known inhibitor.

[2] = biological target: T2, human TLR9 (Homo sapiens, UniProt Q9NR96); test: TLR9 inhibition reporter assay (HEK-Blue SEAP reporter); assay type: cell-based; settings: HEK-Blue cells overexpressing human TLR9; ODN2006 5 nM; 22 hour incubation
T2 construct: host or cells: HEK-Blue cells
T2 sequence (Q9NR96 26-1032): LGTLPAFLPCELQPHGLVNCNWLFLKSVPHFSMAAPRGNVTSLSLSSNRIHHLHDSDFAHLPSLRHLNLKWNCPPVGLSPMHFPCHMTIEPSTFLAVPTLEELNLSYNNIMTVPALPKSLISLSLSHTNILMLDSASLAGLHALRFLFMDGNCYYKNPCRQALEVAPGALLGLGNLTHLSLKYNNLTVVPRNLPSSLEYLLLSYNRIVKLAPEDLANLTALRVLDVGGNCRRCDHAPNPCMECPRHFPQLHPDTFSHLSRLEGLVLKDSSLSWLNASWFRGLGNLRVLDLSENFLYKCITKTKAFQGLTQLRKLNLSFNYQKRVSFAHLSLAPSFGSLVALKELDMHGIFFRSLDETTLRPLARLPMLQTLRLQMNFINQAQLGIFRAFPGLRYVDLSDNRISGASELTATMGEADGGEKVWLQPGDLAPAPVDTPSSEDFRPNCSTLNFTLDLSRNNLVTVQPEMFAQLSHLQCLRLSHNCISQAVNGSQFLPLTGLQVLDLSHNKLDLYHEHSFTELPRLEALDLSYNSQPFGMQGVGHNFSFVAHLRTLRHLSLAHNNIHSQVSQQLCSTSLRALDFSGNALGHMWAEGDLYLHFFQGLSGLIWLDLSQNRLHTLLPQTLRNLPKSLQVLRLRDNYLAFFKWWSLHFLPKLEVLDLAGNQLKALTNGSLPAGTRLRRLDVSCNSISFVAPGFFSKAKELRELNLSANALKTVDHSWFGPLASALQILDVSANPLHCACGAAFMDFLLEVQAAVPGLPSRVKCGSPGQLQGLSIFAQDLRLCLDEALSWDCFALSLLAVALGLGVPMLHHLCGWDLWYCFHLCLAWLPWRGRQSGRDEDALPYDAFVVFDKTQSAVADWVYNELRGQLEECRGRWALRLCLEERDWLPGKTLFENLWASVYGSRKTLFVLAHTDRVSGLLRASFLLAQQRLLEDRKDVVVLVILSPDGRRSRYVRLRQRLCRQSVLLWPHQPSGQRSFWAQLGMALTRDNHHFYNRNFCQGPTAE
Method: as §1, §2

IC50 [1] [nM] | IC50 [2] [nM] | Structure (SMILES)
1130 | 1440 | CNCCNC1CCC(Nc2ccc3[nH]c(-c4ccc(OC)c(OC)c4)c(C(C)C)c3c2)CC1 (single isomer, unassigned) [Example 31, N1-(2-(3,4-dimethoxyphenyl)-3-isopropyl-1H-indol-5-yl)-N4-(2-(methylamino)ethyl)cyclohexane-1,4-diamine]
221 | 991 | COc1ccc(-c2[nH]c3ccc(NC4CCC(NC5CCN(C)CC5)CC4)cc3c2C(C)C)cc1OC (single isomer, unassigned) [Example 41, N1-(2-(3,4-dimethoxyphenyl)-3-isopropyl-1H-indol-5-yl)-N4-(1-methylpiperidin-4-yl)cyclohexane-1,4-diamine]
375 | 4070 | COc1ccc(-c2[nH]c3ccc(NC4CCC(N5CCN(C(C)=O)CC5)CC4)cc3c2C(C)C)cc1OC (single isomer, unassigned) [Example 44, 1-(4-(4-((2-(3,4-dimethoxyphenyl)-3-isopropyl-1H-indol-5-yl)amino)cyclohexyl)piperazin-1-yl)ethan-1-one]
349 | 1270 | COc1ccc(-c2[nH]c3ccc(NC4CCC(N5CCN(C(C)=O)CC5)CC4)cc3c2C(C)C)cc1OC (single isomer, unassigned) [Example 45, 1-(4-(4-((2-(3,4-dimethoxyphenyl)-3-isopropyl-1H-indol-5-yl)amino)cyclohexyl)piperazin-1-yl)ethan-1-one]
191 | 610 | COc1ccc(-c2[nH]c3ccc(NC4CCC(NCCN(C)C)CC4)cc3c2C(C)C)cc1OC (stereo not drawn) [Example 32, N1-(2-(3,4-dimethoxyphenyl)-3-isopropyl-1H-indol-5-yl)-N4-(2-(dimethylamino)ethyl)cyclohexane-1,4-diamine]
136 | 650 | COc1ccc(-c2[nH]c3ccc(NC4CCC(NCCN(C)C)CC4)cc3c2C(C)C)cc1OC (stereo not drawn) [Example 33, N1-(2-(3,4-dimethoxyphenyl)-3-isopropyl-1H-indol-5-yl)-N4-(2-(dimethylamino)ethyl)cyclohexane-1,4-diamine]
281 | 769 | COc1ccc(-c2[nH]c3ccc(NC4CCC(N5CCN(C)CC5)CC4)cc3c2C(C)C)cc1OC (stereo not drawn) [Example 34, 2-(3,4-dimethoxyphenyl)-3-isopropyl-N-(4-(4-methylpiperazin-1-yl)cyclohexyl)-1H-indol-5-amine]
225 | 583 | COc1ccc(-c2[nH]c3ccc(NC4CCC(NCCCN(C)C)CC4)cc3c2C(C)C)cc1OC (stereo not drawn) [Example 36, N1-(2-(3,4-dimethoxyphenyl)-3-isopropyl-1H-indol-5-yl)-N4-(3-(dimethylamino)propyl) cyclohexane-1,4-diamine]
171 | 1430 | COc1ccc(-c2[nH]c3ccc(NC4CCC(NCCCN(C)C)CC4)cc3c2C(C)C)cc1OC (stereo not drawn) [Example 37, N1-(2-(3,4-dimethoxyphenyl)-3-isopropyl-1H-indol-5-yl)-N4-(3-(dimethylamino)propyl) cyclohexane-1,4-diamine]
450 | 716 | CCN1CCN(C2CCC(Nc3ccc4[nH]c(-c5ccc(OC)c(OC)c5)c(C(C)C)c4c3)CC2)CC1 (stereo not drawn) [Example 38, 2-(3,4-dimethoxyphenyl)-N-(4-(4-ethylpiperazin-1-yl)cyclohexyl)-3-isopropyl-1H-indol-5-amine]
242 | 1230 | CCN1CCN(C2CCC(Nc3ccc4[nH]c(-c5ccc(OC)c(OC)c5)c(C(C)C)c4c3)CC2)CC1 (stereo not drawn) [Example 39, 2-(3,4-dimethoxyphenyl)-N-(4-(4-ethylpiperazin-1-yl)cyclohexyl)-3-isopropyl-1H-indol-5-amine]
106 | 1010 | COc1ccc(-c2[nH]c3ccc(NC4CCC(N(C)CCCN(C)C)CC4)cc3c2C(C)C)cc1OC (stereo not drawn) [Example 42, N1-(2-(3,4-dimethoxyphenyl)-3-isopropyl-1H-indol-5-yl)-N4-(3-(dimethylamino)propyl)-N4-methylcyclohexane-1,4-diamine]
252 | 477 | COc1ccc(-c2[nH]c3ccc(NC4CCC(N(C)CCCN(C)C)CC4)cc3c2C(C)C)cc1OC (stereo not drawn) [Example 43, N1-(2-(3,4-dimethoxyphenyl)-3-isopropyl-1H-indol-5-yl)-N4-(3-(dimethylamino)propyl)-N4-methylcyclohexane-1,4-diamine]
1050 | 817 | COc1ccc(-c2[nH]c3ccc(NC4CCC(N5CCC(N(C)C)CC5)CC4)cc3c2C(C)C)cc1OC (stereo not drawn) [Example 46, 2-(3,4-dimethoxyphenyl)-N-(4-(4-(dimethylamino)piperidin-1-yl)cyclohexyl)-3-isopropyl-H-indol-5-amine]
322 | 1250 | COc1ccc(-c2[nH]c3ccc(NC4CCC(NCCN5CCOCC5)CC4)cc3c2C(C)C)cc1OC (stereo not drawn) [Example 48, N1-(2-(3,4-dimethoxyphenyl)-3-isopropyl-1H-indol-5-yl)-N4-(2-morpholinoethyl)cyclohexane-1,4-diamine]
538 | 512 | COc1ccc(-c2[nH]c3ccc(NC4CCC(N5CCN(C(C)(C)C)CC5)CC4)cc3c2C(C)C)cc1OC (stereo not drawn) [Example 49, N-(4-(4-(tert-butyl)piperazin-1-yl)cyclohexyl)-2-(3,4-dimethoxyphenyl)-3-isopropyl-1H-indol-5-amine]
431 | 561 | COc1ccc(-c2[nH]c3ccc(NC4CCC(N5CCN(C(C)(C)C)CC5)CC4)cc3c2C(C)C)cc1OC (stereo not drawn) [Example 50, N-(4-(4-(tert-butyl)piperazin-1-yl)cyclohexyl)-2-(3,4-dimethoxyphenyl)-3-isopropyl-1H-indol-5-amine]

Structure (SMILES) | IC50 [1] [nM] | IC50 [2] [nM]
CCc1c(-c2ccc(OC)c(OC)c2)[nH]c2ccc(N(CC)C3CCN(C4CCN(C)CC4)CC3)cc12 [Example 28, 2-(3,4-dimethoxyphenyl)-N,3-diethyl-N-(1′-methyl-1,4′-bipiperidin-4-yl)-1H-indol-5-amine] | 2220 | 627
